Test results taken from PubChem BioAssay AID2305 (GlaxoSmithKline (GSK), 2010).

What follows are compounds tested on P. falciparum 3D7 growth, pLDH absorbance (assay: P. falciparum 3D7 growth inhibition, dose response, strain 3D7 (AID 2305)).
In the case of `COc1cccc(CNC[C@@H](O)[C@H](Cc2ccccc2)NC(=O)c2cc3c4c(c2)c(C(C)C)cn4CCS(=O)(=O)N3C)c1`, the IC50 is reported as 150 nM.
`COc1cc(C)ccc1S(=O)(=O)N1CCCCC(c2ccc(C(F)(F)F)cc2)=N1` showed an IC50 of 770 nM.
For `CCN1CCN(c2cc(C)c3cc(NC(=O)C=Cc4cccc(OC)c4OC)ccc3n2)CC1`, the IC50 was 700 nM.
Compound `COc1ccccc1CN1CCC(NC(=O)c2ccc(-c3ccc(N(C)C)cc3)s2)CC1` has an IC50 of 960 nM.
Work on `COc1cc(-c2nc(-c3ccccc3)c(-c3ccc([N+](=O)[O-])cc3)[nH]2)cc(OC)c1O` yielded an IC50 of 830 nM.
`CC(C)N(Cc1ccc(-c2ccc(C(F)(F)F)cc2)cc1)C(=O)Cn1c(CCc2cccc(F)c2F)cc(=O)c2ccc(CCCN3CCCCC3)cc21` gave an IC50 of 740 nM.
For `COc1ccc2nccc([C@@H](O)CN3CCC(NCc4cc5cccc(OC)c5o4)CC3)c2c1`, the IC50 was 790 nM.
Compound `CCN(CC)CCN(CCN(CC)CC)c1ccc(-c2nc3cc(Cl)c(Cl)cc3[nH]2)cc1` has an IC50 of 780 nM.
Compound `Cc1ccc(-n2ncc(C(=O)Nc3cc(Cl)cc(Cl)c3)c2C2CCNCC2)cc1C` has an IC50 of 550 nM.
With `COc1ccc(-n2nc(C)c3c2NC(=O)CC3c2ccccc2OCc2ccccc2F)cc1` (stereo not given) the IC50 was 900 nM.
`CCN(CC)CCOc1c(Cl)cc(Cl)cc1CNCCCNc1cc(=O)c2ccccc2[nH]1` gave an IC50 of 870 nM.
`c1ccc(CC2=NCCN2)cc1` gave an IC50 of 190 nM.
Compound `Cc1cc(NN=Cc2ccccn2)c2cc(C(F)(F)F)ccc2n1` has an IC50 of 620 nM.
`CS(=O)(=O)N(c1ccc(F)cc1)c1cc(C(=O)N[C@@H](Cc2ccccc2)[C@H](O)CNCc2cccc(C(F)(F)F)c2)cc(N2CCCC2=O)c1` showed an IC50 of 1350 nM.
Work on `COc1ccc2c(c1C1CCN(CCCCNC(=O)c3ccc(NC(=O)c4ccc(Cl)cc4)cc3)CC1)CCCC2` yielded an IC50 of 340 nM.
Work on `Cc1cccn2c(=O)c3cc(C(=O)NC(C)c4ccccc4)c(=N)n(CCN4CCOCC4)c3nc12` (stereo not given) yielded an IC50 of 820 nM.
Work on `CC(=O)NCCCCC1NC2(C(=O)N(Cc3ccc(C(C)(C)C)cc3)c3ccccc32)C2C(=O)N(C3CCCCC3)C(=O)C12` (stereo not given) yielded an IC50 of 790 nM.
`Nc1c2c(nc3ccc(NC(=O)CCCc4ccccc4)cc13)CCCC2` showed an IC50 of 430 nM.
With `N#Cc1ccc(C(=O)Nc2ccc(-c3cccc(CN4CCCC4)c3)cc2)cc1` the IC50 was 1000 nM.
`O=C(Nc1ccc(N2CCN(Cc3ccccc3Cl)CC2)cc1)c1ccc([N+](=O)[O-])o1` was tested, and the IC50 was 970 nM.
Compound `Oc1ccc(CCNc2nc(NCCCOc3cccc(CN4CCCCC4)c3Cl)nc(N3CCNCC3)n2)cc1` has an IC50 of 1370 nM.
`CC(=O)C1=NN(c2ccc(C)cc2)C(c2cccs2)N1c1ccccc1` (stereo not given) was tested, and the IC50 was 340 nM.
Compound `Cc1cnc(-c2ccc(NC(=O)c3coc4ccc(N5C[C@@H](C)N(C)[C@@H](C)C5)cc34)cc2)o1` has an IC50 of 650 nM.
For `CN1CC=C(c2csc3ccc(NC(=O)Nc4ccc(-c5ccncc5)c(Cl)c4)cc23)CC1`, the IC50 was 680 nM.
Compound `Cc1[nH]c2ccccc2c1C1=CCN(CCCCCC23CCCc4cccc(c42)NC3=O)CC1` (stereo not given) has an IC50 of 250 nM.
Compound `O=C(Nc1ccc(-c2cccc(-c3nc4ccc(F)cc4[nH]3)c2)cc1)Nc1ccsc1` has an IC50 of 690 nM.
In the case of `O=C(Nc1ccc(OC2CCN(Cc3ccsc3)C2)c(Cl)c1)c1ccc(F)cc1` (stereo not given), the IC50 is reported as 940 nM.
`COc1cc2c(c(OC)c1[N+](=O)[O-])C=CC1(O2)N(C)c2ccc([N+](=O)[O-])cc2C1(C)C` (stereo not given) was tested, and the IC50 was 910 nM.
Work on `O=S(=O)(NC1CCC(CN2CCC(c3c[nH]c4ccccc34)CC2)CC1)c1ccc(Cl)c(Cl)c1` (stereo not given) yielded an IC50 of 820 nM.
With `Oc1ccc(CCNc2nc(NCCCOc3ccccc3-c3ccc(C(F)(F)F)cc3)nc(N3CCNCC3)n2)cc1` the IC50 was 890 nM.
`CC(C)CN1CCC(COc2ccc3ncn(-c4cc(O[C@H](C)c5ccccc5C(F)(F)F)c(C(N)=O)s4)c3c2)CC1` was tested, and the IC50 was 620 nM.
With `CN(CCO)Cc1cccc(-c2ccc(NC(=O)c3cccc(C#N)c3)cc2)c1` the IC50 was 800 nM.
With `COc1ccc(CN2CCC(CNCC(c3ccccc3)c3ccccc3)CC2)cc1` the IC50 was 230 nM.
`COc1ccc2nccc([C@@H](O)CN3CCC(NCCOc4cccc(C(F)(F)F)c4)CC3)c2c1` gave an IC50 of 160 nM.
In the case of `NC12CC3CC(CC(C3)C1)C2`, the IC50 is reported as 160 nM.
`FC(F)(F)c1cccc(C=NNc2nc3ccccc3[nH]2)c1` showed an IC50 of 150 nM.
In the case of `FC(F)(F)c1ccc(N2CCCN(Cc3cccc(-c4ccccc4CNCc4ccc5c(c4)OCO5)c3)CC2)nc1`, the IC50 is reported as 1190 nM.
Work on `COc1ccc(C2CC(=O)C3=C(C2)NC(C)=C(C(=O)OC(C)C)C3c2cccc(O)c2)cc1OC` (stereo not given) yielded an IC50 of 780 nM.
In the case of `COc1cc2nc(SCC(C)C)n(CCCn3ccnc3)c(=N)c2cc1OC`, the IC50 is reported as 610 nM.
For `CCCN1CCN(Cc2ccc(-c3ccc(-c4nc5ccccc5[nH]4)s3)cc2)CC1`, the IC50 was 610 nM.
Work on `CCCCCC(=O)NCC(NCCCNc1cc(=O)c2ccccc2[nH]1)c1cc(Br)cc(Br)c1` (stereo not given) yielded an IC50 of 650 nM.
Work on `COc1ccc(C(=O)CCC(=O)N(Cc2ccc(-c3ccc(CNCc4cccnc4)cn3)cc2)C2CCN(Cc3ccccc3)CC2)cc1F` yielded an IC50 of 980 nM.
For `O=C(/C=C/c1ccc(Cl)c(Cl)c1)NC[C@@H]1CCC[C@H](CN2CCC(c3c[nH]c4ccccc34)CC2)C1`, the IC50 was 730 nM.
`Cn1c(Nc2cc(C(C)(C)C)on2)nc2cc(Nc3ccnc(Nc4cccc(S(=O)(=O)N5CCOCC5)c4)n3)ccc21` was tested, and the IC50 was 530 nM.
For `O=[N+]([O-])c1ccc(NC(=NC2CCCc3ccccc32)Nc2ccccc2Br)c(O)c1` (stereo not given), the IC50 was 920 nM.
In the case of `O=C(c1cccs1)N(Cc1cccc(-c2ccc(CNC3CCCC3)cc2)c1)C1CCN(Cc2ccccc2)CC1`, the IC50 is reported as 1130 nM.
Compound `CCCNCc1ccc(-c2ccc(CN(C(=O)c3nn(-c4ccccc4)nc3C)C3CCOCC3)cc2)nc1` has an IC50 of 140 nM.
For `O=C(NC1CCCc2ccccc21)C1CCCN(C(=O)c2ccc(O)c(-c3ccc(Cl)c(Cl)c3)c2)C1` (stereo not given), the IC50 was 1140 nM.
Compound `COc1ccc(NC(=O)c2c(NC(=O)c3cccs3)sc3c2CCCC3)cc1` has an IC50 of 450 nM.
With `CN(c1ncc(-c2cccc(CNCc3ccccc3O)c2)cn1)C1CCCCC1` the IC50 was 820 nM.
Work on `Fc1ccccc1-c1cc(Nc2ccncc2)nc(-c2cccnc2)n1` yielded an IC50 of 260 nM.
`CCc1cc(I)c2c(c1)C(NCCCNc1cc(=O)c3ccccc3[nH]1)CCN2` (stereo not given) was tested, and the IC50 was 890 nM.
For `CCCC(=O)c1cnc2c(Oc3cc(Cl)ncn3)cccc2c1Nc1ccccc1C`, the IC50 was 340 nM.
Work on `CSc1cccc(Nc2nc3ccc(S(=O)(=O)NCC(C)C)cc3n2C(C)C(C)C)c1` (stereo not given) yielded an IC50 of 820 nM.
`CCN(CC)C(=O)C1CCN(C(C(=O)N2CCN(CC(=O)N3CCCC3)CC2)c2cc3ccccc3o2)CC1` (stereo not given) was tested, and the IC50 was 710 nM.
`Cc1ccc(Cn2nc(N3CCNCC3)ccc2=O)cc1NC(=O)Nc1ccc(-c2ccccc2)cc1` showed an IC50 of 840 nM.
`COc1ccc(N2CCN(CCCCNC(=O)c3ccc(NC(=O)c4cccc(Cl)c4)cc3)CC2)c(OC)c1` gave an IC50 of 910 nM.
In the case of `Cc1nc(-c2cccc(NC(C)C(=O)Nc3cc(C(F)(F)F)ccc3N3CCOCC3)c2)cs1` (stereo not given), the IC50 is reported as 240 nM.
`O=C1OC2(CCN(C(=O)c3ccc(-n4cnnn4)cc3)CC2)CN1Cc1ccc(Cl)c(Cl)c1` was tested, and the IC50 was 720 nM.
Compound `CC(C)C[C@H](NC(=O)c1ccc(OCCN2CCOCC2)cc1)C(=O)N[C@H](/C=N/N1CCN(C)C1=O)CCc1ccccc1` has an IC50 of 290 nM.
Work on `CCN(CC(C)O)C(=O)c1ccc(-c2ccc(-c3nc4c(C)cccc4[nH]3)cc2)cc1` (stereo not given) yielded an IC50 of 840 nM.
`CC[C@H]1CN2CC[C@H]1C[C@H]2[C@H](O)c1cc(/C=C/c2ccccc2)nc2ccc(OC)cc12` gave an IC50 of 40 nM.
Work on `CC(=O)Nc1ccc(CN2CCC(NC(=O)c3ccc(-c4cccc(F)c4)s3)CC2)cc1` yielded an IC50 of 1430 nM.
For `COc1ccc2c(NN=Cc3cccc(C)n3)ccnc2c1`, the IC50 was 760 nM.
Work on `COc1ccccc1CCNc1nc(C)cc(N[C@@H](CC(C)C)C(=O)Nc2ccccc2)n1` yielded an IC50 of 1280 nM.
`CCCc1ccc(S(=O)(=O)NC2CCN(c3ccnc(Nc4ccc(F)cc4)n3)C2)cc1` (stereo not given) gave an IC50 of 1010 nM.
`C#CCN(Cc1cc2c(=O)[nH]c(N)nc2cc1C)c1ccc(C(=O)N[C@@H](CCC(=O)O)C(=O)O)cc1` showed an IC50 of 630 nM.
In the case of `Cc1noc(C)c1-c1cccc(CNCc2cccc(-c3cccc(-c4nc5ccccc5[nH]4)c3)c2)c1`, the IC50 is reported as 380 nM.
`CC(=O)Nc1ccc([N+](=O)[O-])c2c(Br)cccc12` was tested, and the IC50 was 640 nM.
`CCN(CC)CCCC(C)Nc1ccnc2ccc(-c3ccccc3)cc12` (stereo not given) gave an IC50 of 650 nM.
`Cc1ccc(CC(C)NCC(O)c2cccc(C#N)c2)cc1` (stereo not given) showed an IC50 of 940 nM.
For `CCCN(CC1CC1)c1ncc(-c2cccc(CNCCC3CCCN3C)c2)cn1` (stereo not given), the IC50 was 750 nM.
Work on `Cc1ccc(C(=O)Nc2ccc(Nc3ccnc4cc(-c5ccncc5)ccc34)cc2O)cc1` yielded an IC50 of 930 nM.
Compound `Cc1cc(Nc2ccc3c(c2)CCC3)n2ncnc2n1` has an IC50 of 970 nM.
Compound `CCCC(C)Nc1nc(C)cc(N[C@@H](Cc2ccccc2)C(=O)NCCc2ccccc2)n1` (stereo not given in full) has an IC50 of 950 nM.
In the case of `O=C(CCCCCNC(=O)c1ccc(O)c(-c2ccc(Cl)c(Cl)c2)c1)NC1CCCc2ccccc21` (stereo not given), the IC50 is reported as 760 nM.
`Fc1ccc(CNc2ncc(-c3ccsc3)c(-c3nccs3)n2)cc1` gave an IC50 of 70 nM.
Compound `O=C(NCc1ccccc1)c1nn(CCCN2CCC(N3CCCC3)CC2)cc1-c1ccc(Cl)c(Cl)c1` has an IC50 of 670 nM.
For `CCN(C)c1cc(C(=O)N[C@@H](Cc2ccccc2)[C@H](O)CNC(C)(C)c2cccc(OC)c2)cc(N2CCCC2=O)c1`, the IC50 was 70 nM.
With `O=C(Nc1cccc(CN2CCN(C(=O)c3cccs3)CC2)c1)c1cccs1` the IC50 was 780 nM.
Compound `Cc1[nH]c2c(NCc3ccc(F)cc3)nccc2c1C` has an IC50 of 1360 nM.
`Cc1ccc(C)c(NC(=O)Nc2ccc(C)c(-c3ccc(C(=O)Nc4ccncc4)cc3)c2)c1` was tested, and the IC50 was 620 nM.
`CC(=O)c1cc(N2CCCC2)ccc1N` gave an IC50 of 20 nM.
`COCCn1c(-c2cccc(Cl)c2)nn(-c2ccc([N+](=O)[O-])cc2C#N)c1=S` showed an IC50 of 180 nM.
Compound `COc1ccc2nccc(N3CCC(SCCNCc4cc5c(cn4)OCCO5)C3)c2n1` (stereo not given) has an IC50 of 770 nM.
`CCCCCN1CCCN(Cc2cccc(NC(=O)c3ccc(-c4ccccc4)cc3)c2)CC1` gave an IC50 of 700 nM.
Work on `COc1ccc(Cl)cc1NC(=O)CN(C)C(=O)c1cnn(-c2ccccc2)n1` yielded an IC50 of 230 nM.
With `O=C(NC1CCN(c2ccnc3cc(Cl)ccc23)C1)c1ccccc1F` (stereo not given) the IC50 was 970 nM.
`CCCC(CNCc1ccccc1)CNc1cc(=O)c2ccccc2[nH]1` (stereo not given) showed an IC50 of 1020 nM.
Work on `CC(C)CCN=C(N)c1ccc(OCCCCCOc2ccc(C(N)=NCCC(C)C)cc2)cc1` yielded an IC50 of 530 nM.
For `O=C(NC1CC1)c1ccc2cc(C(=O)N3Cc4ccccc4C(c4ccccc4)C3)ccc2c1` (stereo not given), the IC50 was 910 nM.
`Oc1c(Br)cc2oc3c(c2c1CNCc1ccccc1)CCCC3` was tested, and the IC50 was 960 nM.
`COc1ccc(C(=O)N[C@@H](CC(C)C)C(=O)NC2CC[C@@H](C)N(C(=O)Nc3ccc(Cl)cc3)CC2=O)cc1OCCN1CCOCC1` (stereo not given in full) gave an IC50 of 150 nM.
`CCn1ccc2c(N3CCCC3=O)cc(C(=O)N[C@@H](Cc3ccccc3)[C@H](O)CNC(C)(C)CCCC(C)C)cc21` gave an IC50 of 350 nM.
`Cc1ccc(-c2nnc(Nc3ccc(OCC(N)=O)cc3)c3ccccc23)cc1S(=O)(=O)NCC1CCCO1` (stereo not given) showed an IC50 of 750 nM.
